From patent US10344060B2 (priority 2013, dated 2019)

Columns and labels:
Test in all cases: cell-based
hNav1.7 = hNav1.7 (Homo sapiens, UniProt Q15858); details: read-out: IC50 (μM) Nav1.7
hNav1.4 = hNav1.4 (Homo sapiens, UniProt P35499); type: cell-based; details: Table 6; for IC50: IonWorks Quattro, read-out: IC50 (μM) Nav1.4; for Nav1.4/Nav1.7: ratio of IonWorks Quattro IC50 values
hNav1.3 = hNav1.3 (Homo sapiens, UniProt Q9NY46); details: IonWorks Quattro; Table 6; read-out: IC50 (μM) Nav1.3
Chain of hNav1.3 (Q9NY46 whole entry): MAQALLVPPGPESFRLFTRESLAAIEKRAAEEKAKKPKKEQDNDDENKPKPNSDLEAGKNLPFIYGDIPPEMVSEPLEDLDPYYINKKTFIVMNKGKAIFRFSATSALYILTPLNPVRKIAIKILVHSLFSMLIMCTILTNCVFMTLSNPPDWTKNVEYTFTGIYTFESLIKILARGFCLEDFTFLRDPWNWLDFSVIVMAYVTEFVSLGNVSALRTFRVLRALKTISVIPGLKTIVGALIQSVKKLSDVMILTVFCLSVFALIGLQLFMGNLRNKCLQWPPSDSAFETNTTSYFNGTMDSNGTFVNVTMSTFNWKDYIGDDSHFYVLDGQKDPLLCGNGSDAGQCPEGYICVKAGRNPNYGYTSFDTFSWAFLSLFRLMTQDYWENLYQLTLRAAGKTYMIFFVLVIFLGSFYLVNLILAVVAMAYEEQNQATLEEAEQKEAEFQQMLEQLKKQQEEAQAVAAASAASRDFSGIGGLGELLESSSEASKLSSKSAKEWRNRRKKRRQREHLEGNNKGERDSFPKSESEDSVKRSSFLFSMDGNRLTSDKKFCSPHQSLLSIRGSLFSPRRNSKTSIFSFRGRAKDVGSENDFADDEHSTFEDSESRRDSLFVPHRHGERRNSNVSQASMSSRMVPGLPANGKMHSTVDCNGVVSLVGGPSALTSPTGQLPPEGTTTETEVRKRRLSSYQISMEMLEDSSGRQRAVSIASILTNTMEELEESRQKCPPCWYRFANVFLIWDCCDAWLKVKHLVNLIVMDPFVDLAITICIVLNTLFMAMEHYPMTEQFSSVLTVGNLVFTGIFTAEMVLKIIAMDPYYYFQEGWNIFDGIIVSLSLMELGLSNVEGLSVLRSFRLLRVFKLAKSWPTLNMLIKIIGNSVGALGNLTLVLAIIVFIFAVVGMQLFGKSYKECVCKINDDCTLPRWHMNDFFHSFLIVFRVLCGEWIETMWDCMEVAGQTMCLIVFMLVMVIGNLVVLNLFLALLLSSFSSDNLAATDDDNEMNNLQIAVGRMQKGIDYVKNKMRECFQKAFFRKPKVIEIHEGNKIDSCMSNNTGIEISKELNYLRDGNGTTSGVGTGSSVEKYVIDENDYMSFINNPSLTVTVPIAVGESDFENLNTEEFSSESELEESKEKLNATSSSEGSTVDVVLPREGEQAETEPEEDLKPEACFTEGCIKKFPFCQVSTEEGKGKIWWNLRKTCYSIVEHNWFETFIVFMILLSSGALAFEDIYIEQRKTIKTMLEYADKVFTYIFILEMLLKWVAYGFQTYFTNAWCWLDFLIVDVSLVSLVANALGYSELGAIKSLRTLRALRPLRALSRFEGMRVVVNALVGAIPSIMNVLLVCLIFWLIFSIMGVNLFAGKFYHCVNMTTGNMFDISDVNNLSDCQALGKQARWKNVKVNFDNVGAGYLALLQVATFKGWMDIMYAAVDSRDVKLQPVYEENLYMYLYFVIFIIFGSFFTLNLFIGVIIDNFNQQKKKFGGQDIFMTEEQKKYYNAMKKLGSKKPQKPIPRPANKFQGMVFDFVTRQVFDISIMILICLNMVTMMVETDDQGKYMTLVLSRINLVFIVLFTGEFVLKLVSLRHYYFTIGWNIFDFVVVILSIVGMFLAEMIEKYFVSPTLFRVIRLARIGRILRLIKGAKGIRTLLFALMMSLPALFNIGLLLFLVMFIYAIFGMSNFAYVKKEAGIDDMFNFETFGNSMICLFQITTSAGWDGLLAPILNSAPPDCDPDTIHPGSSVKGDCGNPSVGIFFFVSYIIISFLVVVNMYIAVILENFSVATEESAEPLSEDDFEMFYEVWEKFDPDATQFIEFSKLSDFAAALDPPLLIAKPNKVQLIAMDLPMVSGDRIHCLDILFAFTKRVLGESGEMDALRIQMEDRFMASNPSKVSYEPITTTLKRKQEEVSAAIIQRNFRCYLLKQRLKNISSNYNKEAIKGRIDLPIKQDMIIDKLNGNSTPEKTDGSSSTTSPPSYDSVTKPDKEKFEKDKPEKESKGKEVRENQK

hNav1.5 = hNav1.5 (Homo sapiens, UniProt Q14524); details: IonWorks Quattro; Table 6; read-out: IC50 (μM) Nav1.5
Chain of hNav1.5 (Q14524 whole entry): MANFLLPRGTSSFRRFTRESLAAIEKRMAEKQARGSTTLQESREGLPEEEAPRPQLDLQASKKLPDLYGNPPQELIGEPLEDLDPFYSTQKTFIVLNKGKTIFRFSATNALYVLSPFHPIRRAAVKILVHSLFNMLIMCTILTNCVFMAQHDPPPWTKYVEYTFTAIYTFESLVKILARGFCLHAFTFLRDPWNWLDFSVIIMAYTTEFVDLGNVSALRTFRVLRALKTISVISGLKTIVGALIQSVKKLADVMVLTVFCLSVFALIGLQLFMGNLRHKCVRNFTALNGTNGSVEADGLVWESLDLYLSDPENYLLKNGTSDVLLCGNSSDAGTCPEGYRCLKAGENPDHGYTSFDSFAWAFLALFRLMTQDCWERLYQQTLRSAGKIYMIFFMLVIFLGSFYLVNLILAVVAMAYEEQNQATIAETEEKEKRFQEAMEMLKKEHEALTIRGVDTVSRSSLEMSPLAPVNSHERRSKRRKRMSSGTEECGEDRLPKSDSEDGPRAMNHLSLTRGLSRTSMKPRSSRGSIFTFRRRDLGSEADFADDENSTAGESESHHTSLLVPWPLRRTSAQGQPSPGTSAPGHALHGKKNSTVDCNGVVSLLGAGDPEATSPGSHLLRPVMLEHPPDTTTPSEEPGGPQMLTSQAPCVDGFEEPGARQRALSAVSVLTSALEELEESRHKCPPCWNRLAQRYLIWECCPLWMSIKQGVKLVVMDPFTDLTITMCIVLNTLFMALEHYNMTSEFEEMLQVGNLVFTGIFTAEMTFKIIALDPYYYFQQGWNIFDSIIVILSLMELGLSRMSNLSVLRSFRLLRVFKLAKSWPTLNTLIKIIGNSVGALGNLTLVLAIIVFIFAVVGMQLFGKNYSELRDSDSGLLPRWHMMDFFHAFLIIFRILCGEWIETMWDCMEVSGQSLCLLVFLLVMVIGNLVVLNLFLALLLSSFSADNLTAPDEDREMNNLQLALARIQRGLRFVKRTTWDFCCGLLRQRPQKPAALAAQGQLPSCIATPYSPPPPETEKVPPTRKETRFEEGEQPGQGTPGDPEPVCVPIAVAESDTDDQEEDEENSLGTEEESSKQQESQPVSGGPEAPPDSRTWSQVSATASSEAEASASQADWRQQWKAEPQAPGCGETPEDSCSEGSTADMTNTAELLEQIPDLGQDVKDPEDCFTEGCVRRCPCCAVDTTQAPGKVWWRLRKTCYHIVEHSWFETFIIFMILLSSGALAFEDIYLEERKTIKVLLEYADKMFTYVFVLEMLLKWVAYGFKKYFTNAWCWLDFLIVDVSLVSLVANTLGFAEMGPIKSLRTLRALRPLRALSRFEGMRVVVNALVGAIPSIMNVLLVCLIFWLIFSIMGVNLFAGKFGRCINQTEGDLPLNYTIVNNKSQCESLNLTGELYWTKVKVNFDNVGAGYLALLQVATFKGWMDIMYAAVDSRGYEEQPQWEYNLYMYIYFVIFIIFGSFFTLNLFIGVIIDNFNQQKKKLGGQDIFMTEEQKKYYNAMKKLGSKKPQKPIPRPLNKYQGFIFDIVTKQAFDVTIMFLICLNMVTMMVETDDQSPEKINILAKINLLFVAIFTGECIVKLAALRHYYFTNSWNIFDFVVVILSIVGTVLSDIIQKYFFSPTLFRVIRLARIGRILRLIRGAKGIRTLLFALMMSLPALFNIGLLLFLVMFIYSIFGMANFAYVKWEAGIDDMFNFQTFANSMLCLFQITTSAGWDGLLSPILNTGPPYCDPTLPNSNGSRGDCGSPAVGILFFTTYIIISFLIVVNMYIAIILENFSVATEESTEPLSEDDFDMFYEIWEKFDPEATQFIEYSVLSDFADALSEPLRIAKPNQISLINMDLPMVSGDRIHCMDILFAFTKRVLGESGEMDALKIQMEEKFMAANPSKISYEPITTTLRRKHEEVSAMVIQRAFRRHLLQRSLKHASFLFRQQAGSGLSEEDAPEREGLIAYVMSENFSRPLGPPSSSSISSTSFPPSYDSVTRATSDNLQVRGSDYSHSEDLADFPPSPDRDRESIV

| SMILES | IC50 (hNav1.7) [µM] | IC50 (hNav1.4) [µM] | Nav1.4/Nav1.7 (hNav1.4) | IC50 (hNav1.3) [µM] | IC50 (hNav1.5) [µM] |
| --- | --- | --- | --- | --- | --- |
| CC[C@H](C)[C@H](NC(=O)[C@@H](NC(=O)[C@H](CCCCN)NC(=O)[C@H](CCCNC(=N)N)NC(=O)[C@@H]1CSSC[C@@H]2NC(=O)[C@H](C)NC(=O)[C@H](CCCNC(=N)N)NC(=O)[C@H](CCCCN)NC(=O)[C@H](CO)NC(=O)[C@H](CC(=O)O)NC(=O)[C@@H]3CSSC[C@H](NC(=O)[C@H](CCCNC(=N)N)NC(=O)[C@H](CC(C)C)NC(=O)CNC(=O)[C@H](CCC(=O)O)NC(=O)[C@H](CSSC[C@H](NC(=O)[C@@H](N)Cc4ccc(O)cc4)C(=O)N[C@@H](CCC(N)=O)C(=O)N[C@@H](CCCCN)C(=O)N[C@@H](Cc4c[nH]c5ccccc45)C(=O)N[C@@H](CCSC)C(=O)N[C@@H](C)C(=O)N[C@@H]([C@@H](C)O)C(=O)N3)NC2=O)C(=O)N[C@@H](CCCCN)C(=O)N[C@@H](CC(C)C)C(=O)N[C@@H](Cc2c[nH]c3ccccc23)C(=O)N1)[C@@H](C)CC)C(N)=O [compound 8] | 0.15 | 0.69 | 5 | 0.94 | > 5 |
| CC[C@H](C)[C@H](NC(=O)[C@@H](NC(=O)[C@H](CCCCN)NC(=O)[C@H](CCCNC(=N)N)NC(=O)[C@@H]1CSSC[C@@H]2NC(=O)[C@H](C)NC(=O)[C@H](CCCNC(=N)N)NC(=O)[C@H](CCCCN)NC(=O)[C@H](CO)NC(=O)[C@H](CC(=O)O)NC(=O)[C@@H]3CSSC[C@H](NC(=O)[C@H](CCCNC(=N)N)NC(=O)[C@H](CC(C)C)NC(=O)CNC(=O)[C@H](CCC(=O)O)NC(=O)[C@H](CSSC[C@H](NC(=O)[C@@H](N)Cc4ccc(O)cc4)C(=O)N[C@@H](CCC(N)=O)C(=O)N[C@@H](CCCCN)C(=O)N[C@@H](Cc4c[nH]c5ccccc45)C(=O)N[C@@H](CCSC)C(=O)N[C@@H](Cc4c[nH]c5ccccc45)C(=O)N[C@@H](C)C(=O)N3)NC2=O)C(=O)N[C@@H](CCCCN)C(=O)N[C@@H](CC(C)C)C(=O)N[C@@H](Cc2c[nH]c3ccccc23)C(=O)N1)[C@@H](C)CC)C(N)=O [compound 9] | 0.025 | 0.25 | 10 | 0.21 | > 5 |
| CC[C@H](C)[C@H](NC(=O)[C@@H](NC(=O)[C@H](CCCCN)NC(=O)[C@H](CCCNC(=N)N)NC(=O)[C@@H]1CSSC[C@@H]2NC(=O)[C@H](C)NC(=O)[C@H](CCCNC(=N)N)NC(=O)[C@H](CCCCN)NC(=O)[C@H](C)NC(=O)[C@H](CC(=O)O)NC(=O)[C@@H]3CSSC[C@H](NC(=O)[C@H](CCCNC(=N)N)NC(=O)[C@H](CC(C)C)NC(=O)CNC(=O)[C@H](CCC(=O)O)NC(=O)[C@H](CSSC[C@H](NC(=O)[C@@H](N)Cc4ccc(O)cc4)C(=O)N[C@@H](CCC(N)=O)C(=O)N[C@@H](CCCCN)C(=O)N[C@@H](Cc4c[nH]c5ccccc45)C(=O)N[C@@H](CCSC)C(=O)N[C@@H](Cc4c[nH]c5ccccc45)C(=O)N[C@@H]([C@@H](C)O)C(=O)N3)NC2=O)C(=O)N[C@@H](CCCCN)C(=O)N[C@@H](CC(C)C)C(=O)N[C@@H](Cc2c[nH]c3ccccc23)C(=O)N1)[C@@H](C)CC)C(N)=O [compound 11] | 0.012 | 0.16 | 13 | 0.14 | 3.6 |
| CC[C@H](C)[C@H](NC(=O)[C@@H](NC(=O)[C@H](CCCCN)NC(=O)[C@H](CCCNC(=N)N)NC(=O)[C@@H]1CSSC[C@@H]2NC(=O)[C@H](C)NC(=O)[C@H](CCCNC(=N)N)NC(=O)[C@H](C)NC(=O)[C@H](CO)NC(=O)[C@H](CC(=O)O)NC(=O)[C@@H]3CSSC[C@H](NC(=O)[C@H](CCCNC(=N)N)NC(=O)[C@H](CC(C)C)NC(=O)CNC(=O)[C@H](CCC(=O)O)NC(=O)[C@H](CSSC[C@H](NC(=O)[C@@H](N)Cc4ccc(O)cc4)C(=O)N[C@@H](CCC(N)=O)C(=O)N[C@@H](CCCCN)C(=O)N[C@@H](Cc4c[nH]c5ccccc45)C(=O)N[C@@H](CCSC)C(=O)N[C@@H](Cc4c[nH]c5ccccc45)C(=O)N[C@@H]([C@@H](C)O)C(=O)N3)NC2=O)C(=O)N[C@@H](CCCCN)C(=O)N[C@@H](CC(C)C)C(=O)N[C@@H](Cc2c[nH]c3ccccc23)C(=O)N1)[C@@H](C)CC)C(N)=O [compound 12] | 0.022 | 0.26 | 12 | 0.15 | > 5 |
| CC[C@H](C)[C@H](NC(=O)[C@@H](NC(=O)[C@H](CCCCN)NC(=O)[C@H](CCCNC(=N)N)NC(=O)[C@@H]1CSSC[C@@H]2NC(=O)[C@H](C)NC(=O)[C@H](C)NC(=O)[C@H](CCCCN)NC(=O)[C@H](CO)NC(=O)[C@H](CC(=O)O)NC(=O)[C@@H]3CSSC[C@H](NC(=O)[C@H](CCCNC(=N)N)NC(=O)[C@H](CC(C)C)NC(=O)CNC(=O)[C@H](CCC(=O)O)NC(=O)[C@H](CSSC[C@H](NC(=O)[C@@H](N)Cc4ccc(O)cc4)C(=O)N[C@@H](CCC(N)=O)C(=O)N[C@@H](CCCCN)C(=O)N[C@@H](Cc4c[nH]c5ccccc45)C(=O)N[C@@H](CCSC)C(=O)N[C@@H](Cc4c[nH]c5ccccc45)C(=O)N[C@@H]([C@@H](C)O)C(=O)N3)NC2=O)C(=O)N[C@@H](CCCCN)C(=O)N[C@@H](CC(C)C)C(=O)N[C@@H](Cc2c[nH]c3ccccc23)C(=O)N1)[C@@H](C)CC)C(N)=O [compound 13] | 0.079 | 0.57 | 7 | 0.3 | > 5 |
| CC[C@H](C)[C@H](NC(=O)[C@@H](NC(=O)[C@H](CCCCN)NC(=O)[C@H](CCCNC(=N)N)NC(=O)[C@@H]1CSSC[C@@H]2NC(=O)[C@H](C)NC(=O)[C@H](CCCNC(=N)N)NC(=O)[C@H](CCCCN)NC(=O)[C@H](CO)NC(=O)[C@H](CC(=O)O)NC(=O)[C@@H]3CSSC[C@H](NC(=O)[C@H](CCCNC(=N)N)NC(=O)[C@H](CC(C)C)NC(=O)CNC(=O)[C@H](C)NC(=O)[C@H](CSSC[C@H](NC(=O)[C@@H](N)Cc4ccc(O)cc4)C(=O)N[C@@H](CCC(N)=O)C(=O)N[C@@H](CCCCN)C(=O)N[C@@H](Cc4c[nH]c5ccccc45)C(=O)N[C@@H](CCSC)C(=O)N[C@@H](Cc4c[nH]c5ccccc45)C(=O)N[C@@H]([C@@H](C)O)C(=O)N3)NC2=O)C(=O)N[C@@H](CCCCN)C(=O)N[C@@H](CC(C)C)C(=O)N[C@@H](Cc2c[nH]c3ccccc23)C(=O)N1)[C@@H](C)CC)C(N)=O [compound 14] | 0.008 | 0.06 | 8 | 0.08 | 2 |
| CC[C@H](C)[C@H](NC(=O)[C@@H](NC(=O)[C@H](CCCCN)NC(=O)[C@H](CCCNC(=N)N)NC(=O)[C@@H]1CSSC[C@@H]2NC(=O)[C@H](C)NC(=O)[C@H](CCCNC(=N)N)NC(=O)[C@H](CCCCN)NC(=O)[C@H](CO)NC(=O)[C@H](CC(=O)O)NC(=O)[C@@H]3CSSC[C@H](NC(=O)[C@H](CCCNC(=N)N)NC(=O)[C@H](CC(C)C)NC(=O)[C@H](C)NC(=O)[C@H](CCC(=O)O)NC(=O)[C@H](CSSC[C@H](NC(=O)[C@@H](N)Cc4ccc(O)cc4)C(=O)N[C@@H](CCC(N)=O)C(=O)N[C@@H](CCCCN)C(=O)N[C@@H](Cc4c[nH]c5ccccc45)C(=O)N[C@@H](CCSC)C(=O)N[C@@H](Cc4c[nH]c5ccccc45)C(=O)N[C@@H]([C@@H](C)O)C(=O)N3)NC2=O)C(=O)N[C@@H](CCCCN)C(=O)N[C@@H](CC(C)C)C(=O)N[C@@H](Cc2c[nH]c3ccccc23)C(=O)N1)[C@@H](C)CC)C(N)=O [compound 15] | 0.04 | 0.26 | 7 | 0.24 | > 5 |
| CC[C@H](C)[C@H](NC(=O)[C@@H](NC(=O)[C@H](CCCCN)NC(=O)[C@H](CCCNC(=N)N)NC(=O)[C@@H]1CSSC[C@@H]2NC(=O)[C@H](C)NC(=O)[C@H](CCCNC(=N)N)NC(=O)[C@H](CCCCN)NC(=O)[C@H](CO)NC(=O)[C@H](CC(=O)O)NC(=O)[C@@H]3CSSC[C@H](NC(=O)[C@H](CCCNC(=N)N)NC(=O)[C@H](CC(C)C)NC(=O)CNC(=O)[C@H](CCC(=O)O)NC(=O)[C@H](CSSC[C@H](NC(=O)[C@@H](N)Cc4ccc(O)cc4)C(=O)N[C@@H](CCC(N)=O)C(=O)N[C@@H](CCCCN)C(=O)N[C@@H](Cc4c[nH]c5ccccc45)C(=O)N[C@@H](CCSC)C(=O)N[C@@H](Cc4c[nH]c5ccccc45)C(=O)N[C@@H]([C@@H](C)O)C(=O)N3)NC2=O)C(=O)N[C@@H](C)C(=O)N[C@@H](CC(C)C)C(=O)N[C@@H](Cc2c[nH]c3ccccc23)C(=O)N1)[C@@H](C)CC)C(N)=O [compound 18] | 0.062 | 0.41 | 7 | 0.52 | > 5 |
| CC[C@H](C)[C@H](NC(=O)[C@@H](NC(=O)[C@H](CCCCN)NC(=O)[C@H](CCCNC(=N)N)NC(=O)[C@@H]1CSSC[C@@H]2NC(=O)[C@H](C)NC(=O)[C@H](CCCNC(=N)N)NC(=O)[C@H](CCCCN)NC(=O)[C@H](CO)NC(=O)[C@H](CC(=O)O)NC(=O)[C@@H]3CSSC[C@H](NC(=O)[C@H](CCCNC(=N)N)NC(=O)[C@H](CC(C)C)NC(=O)CNC(=O)[C@H](CCC(=O)O)NC(=O)[C@H](CSSC[C@H](NC(=O)[C@@H](N)Cc4ccc(O)cc4)C(=O)N[C@@H](CCC(N)=O)C(=O)N[C@@H](CCCCN)C(=O)N[C@@H](Cc4c[nH]c5ccccc45)C(=O)N[C@@H](CCSC)C(=O)N[C@@H](Cc4c[nH]c5ccccc45)C(=O)N[C@@H]([C@@H](C)O)C(=O)N3)NC2=O)C(=O)N[C@@H](CCCCN)C(=O)N[C@@H](C)C(=O)N[C@@H](Cc2c[nH]c3ccccc23)C(=O)N1)[C@@H](C)CC)C(N)=O [compound 19] | 0.3 | 0.34 | 1 | 0.44 | > 5 |
